Where two headings read alike, the source gives them in different places.
Assays:
[1] = biological target: Mcl-1/Bim interaction (recombinant human Mcl-1 residues 171-327) (Homo sapiens (Human), UniProt Q07820); test: Cell Free Mcl-1:Bim Affinity Assay (Mcl-1 HTRF); assay type: binding; conditions: TR-FRET, 0.1 nM Mcl-1(171-327), 0.05 nM biotin-Bim(51-76)
Description: Cell Free Mcl-1:Bim Affinity Assay (Mcl-1 HTRF)
The inhibition of the Mcl-1/Bim interaction was measured using a time-resolved fluorescence resonance energy transfer (TR-FRET) assay. The recombinant human Mcl-1 (C-terminally 6×His tagged Mcl-1 containing residues 171-327) was generated at Amgen Inc (Thousand Oaks, Calif.). A biotinylated peptide derived from human Bim (residues 51-76) was purchased from CPC Scientific (San Jose, Calif.). The TR-FRET assay was conducted in a 384-well white OptiPlate™ (PerkinElmer, Waltham, Mass.) in a total volume of 40 μL. The reaction mixture contained 0.1 nM Mcl-1(171-327), 0.05 nM biotin-Bim(51-76), 0.05 nM LANCES Eu-W1024 Anti-6×His (PerkinElmer), 0.072 nM Streptavidin-Xlent (Cisbio, Bedford, Mass.), and serially diluted test compounds in the binding buffer of 20 mM Hepes, pH 7.5, 150 mM NaCl, 0.016 mM Brij®35, and 1 mM dithiothreitol. Test compounds were pre-incubated with Mcl-1(171-327) and biotin-Bim (51-76) for 60 min before addition of the detection mixture (LANCE® Eu-W1024 Anti-6×His and Streptavidin-Xlent). The reaction plates were further incubated overnight and then were read on an Envision® multimode reader (PerkinElmer). Fluorescence signals were measured at 620 nm (40-nm bandwidth) and 665 nm (7.5-nm bandwidth) with a 60 μs delay after excitation at 320 nm (75-nm bandwidth). The signal ratio at 665/620 nm corresponded to the Mcl-1/Bim interaction and was used in all data analyses. The IC50 values of test compounds were determined from duplicate data by analyzing competition curves using a four-parameter sigmoidal model in GraphPad Prism (GraphPad Software, San Diego, Calif.) or in Genedata Screener® (Genedata, Basel, Switzerland).

[2] = test system: OPM-2 human multiple myeloma cell line; test: Cell Viability Assay (OPM-2 10 FBS); assay type: cell-based; conditions: OPM-2 cells, CellTiter-Glo, read-out: OPM-2 10% FBS IC50 IP
Description: Cell Viability Assay (OPM-2 10 FBS)
The human multiple myeloma cell line, OPM-2, was cultured in complete growth medium containing RPMI 1640 and 10% fetal bovine serum (FBS). Cells were seeded into 384-well plates at 3000 cells/well density in complete growth medium containing 10% FBS, and incubated for 16 h with serially diluted test compounds in a 37° C. incubator with 5% CO2. Cell viability was tested using CellTiter-Glo® assay (Promega, Madison, Wis.) according to the manufacturer recommendations. Luminescence was determined using an EnVision® Multilabel plate reader 25 min after the addition of detection reagent. IC50 values were then calculated with Xlfit using a logistical 4-parameter fit model in GraphPad Prism (GraphPad Software, San Diego, Calif.) or in Genedata Screener® (Genedata, Basel, Switzerland).

Sequence of Mcl-1/Bim interaction (recombinant human Mcl-1 residues 171-327) (Q07820 171-327): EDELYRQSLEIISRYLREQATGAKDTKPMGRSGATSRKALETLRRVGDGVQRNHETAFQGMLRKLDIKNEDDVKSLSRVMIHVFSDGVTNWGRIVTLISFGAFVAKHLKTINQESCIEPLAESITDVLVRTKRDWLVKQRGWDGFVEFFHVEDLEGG

| IC50 [1] [nM] | IC50 ([2]; 16 h) [nM] | IC50 ([2]; Homo sapiens, OPM-2, 16 h) [nM] | Compound |
| --- | --- | --- | --- |
| 0.442 | 20700 | – | C[C@@H]1[C@@H](C)CCC[C@H](C(=O)O)[C@@H]2CC[C@H]2CN2C[C@@]3(CCCc4cc(Cl)ccc43)COc3ccc(cc32)C(=O)NS1(=O)=O (single isomer, unassigned) [Example 77] |
| 1.6 | – | 3510 | COC[C@H]1CCC[C@H](C)[C@@H](C)S(=O)(=O)NC(=O)c2ccc3c(c2)N(C[C@@H]2CC[C@@H]12)C[C@@]1(CCCc2cc(Cl)ccc21)CO3 (single isomer, unassigned) [Example 80] |
| 0.772 | 3650 | – | C[C@H]1CCC[C@H](CO)[C@@H]2CC[C@H]2CN2C[C@@]3(CCCc4cc(Cl)ccc43)COc3ccc(cc32)C(=O)NS(=O)(=O)C1 (single isomer, unassigned) [Example 82] |
| 3.43 | 5840 | – | C[C@@H]1CS(=O)(=O)NC(=O)c2ccc3c(c2)N(C[C@@H]2CC[C@H]2[C@@H](CO)CC[C@@H]1C)C[C@@]1(CCCc2cc(Cl)ccc21)CO3 (single isomer, unassigned) [Example 84] |
| 0.676 | 7130 | – | CC[C@@H]1CCCC[C@H](CO)[C@@H]2CC[C@H]2CN2C[C@@]3(CCCc4cc(Cl)ccc43)COc3ccc(cc32)C(=O)NS1(=O)=O (single isomer, unassigned) [Example 85] |
| 27.5 | 9230 | – | C[C@@H]1[C@@H](C)CCC[C@@H]([C@H](O)C(F)(F)F)[C@@H]2CC[C@H]2CN2C[C@@]3(CCCc4cc(Cl)ccc43)COc3ccc(cc32)C(=O)NS1(=O)=O (single isomer, unassigned) [Example 86] |
| 13.3 | 9890 | – | C[C@@H]1[C@@H](C)CCC[C@@H]([C@@H](O)C(F)(F)F)[C@@H]2CC[C@H]2CN2C[C@@]3(CCCc4cc(Cl)ccc43)COc3ccc(cc32)C(=O)NS1(=O)=O (single isomer, unassigned) [Example 87] |
| 14.2 | > 33300 | – | C[C@@H]1[C@@H](C)CCC[C@H](C)[C@@H]2CC[C@H]2CN2C[C@@]3(CCCc4cc(Cl)ccc43)COc3ccc(cc32)C(=O)NS1(=O)=O (single isomer, unassigned) [Example 89] |
| 0.287 | – | 364 | C[C@@H]1[C@@H](C)CCC[C@H](CC(=O)N(C)C)[C@@H]2CC[C@H]2CN2C[C@@]3(CCCc4cc(Cl)ccc43)COc3ccc(cc32)C(=O)NS1(=O)=O (stereo in doubt) [Example 28] |
| 0.843 | 1020 | – | C[C@@H]1[C@@H](C)CCC[C@H](CN2CCOCC2)[C@@H]2CC[C@H]2CN2C[C@@]3(CCCc4cc(Cl)ccc43)COc3ccc(cc32)C(=O)NS1(=O)=O (stereo in doubt) [Example 55] |
| 0.552 | 1330 | – | C[C@@H]1[C@@H](C)CCC[C@H](C=O)[C@@H]2CC[C@H]2CN2C[C@@]3(CCCc4cc(Cl)ccc43)COc3ccc(cc32)C(=O)NS1(=O)=O [Example 60] |

The next lines start with the compound.

| Compound | IC50 [1] [nM] | IC50 ([2]; 16 h) [nM] | IC50 ([2]; Homo sapiens, OPM-2, 16 h) [nM] |
| --- | --- | --- | --- |
| C[C@@H]1[C@@H](C)CCC[C@H]([C@H](O)c2ccccc2)[C@@H]2CC[C@H]2CN2C[C@@]3(CCCc4cc(Cl)ccc43)COc3ccc(cc32)C(=O)NS1(=O)=O (single isomer, unassigned) [Example 78] | 2.36 | 28300 | – |
| C[C@H]([C@H]1CCC[C@H](C)[C@@H](C)S(=O)(=O)NC(=O)c2ccc3c(c2)N(C[C@@H]2CC[C@H]21)C[C@@]1(CCCc2cc(Cl)ccc21)CO3)N1CCOCC1 (single isomer, unassigned) [Example 79] | 1.59 | 3000 | – |
| C[C@@H]1[C@@H](C)CCC[C@H]([C@H](O)C2CCN(C)CC2)[C@@H]2CC[C@H]2CN2C[C@@]3(CCCc4cc(Cl)ccc43)COc3ccc(cc32)C(=O)NS1(=O)=O (single isomer, unassigned) [Example 83] | 0.552 | 4230 | – |
| C[C@@H]1[C@@H](C)CCC[C@@H]([C@@H](O)c2ccccc2)[C@@H]2CC[C@H]2CN2C[C@@]3(CCCc4cc(Cl)ccc43)COc3ccc(cc32)C(=O)NS1(=O)=O (single isomer, unassigned) [Example 88] | 11.4 | > 33300 | – |
| COCCN1CCN(C[C@H]2CCC[C@H](C)[C@@H](C)S(=O)(=O)NC(=O)c3ccc4c(c3)N(C[C@@H]3CC[C@@H]23)C[C@@]2(CCCc3cc(Cl)ccc32)CO4)CC1=O (stereo in doubt) [Example 3] | 0.257 | – | 166 |
| C[C@@H]1[C@@H](C)CCC[C@H](CN2CCN3CCOC[C@H]3C2)[C@@H]2CC[C@H]2CN2C[C@@]3(CCCc4cc(Cl)ccc43)COc3ccc(cc32)C(=O)NS1(=O)=O (stereo in doubt) [Example 14] | 0.291 | – | 268 |
| C[C@@H]1[C@@H](C)CCC[C@H](CN2CC(N(C)C)C2)[C@@H]2CC[C@H]2CN2C[C@@]3(CCCc4cc(Cl)ccc43)COc3ccc(cc32)C(=O)NS1(=O)=O (stereo in doubt) [Example 18] | 0.84 | 289 | – |
| C[C@@H]1[C@@H](C)CCC[C@H](CN2CCN3CCN(S(C)(=O)=O)C[C@@H]3C2)[C@@H]2CC[C@H]2CN2C[C@@]3(CCCc4cc(Cl)ccc43)COc3ccc(cc32)C(=O)NS1(=O)=O (stereo in doubt) [Example 20] | 1.16 | – | 304 |
| CC(=O)N1CCN2CCN(C[C@H]3CCC[C@H](C)[C@@H](C)S(=O)(=O)NC(=O)c4ccc5c(c4)N(C[C@@H]4CC[C@@H]34)C[C@@]3(CCCc4cc(Cl)ccc43)CO5)C[C@H]2C1 (stereo in doubt) [Example 25] | 0.252 | 329 | – |
| C[C@@H]1[C@@H](C)CCC[C@H](CN2CC(C)(N(C)C)C2)[C@@H]2CC[C@H]2CN2C[C@@]3(CCCc4cc(Cl)ccc43)COc3ccc(cc32)C(=O)NS1(=O)=O (stereo in doubt) [Example 27] | 0.83 | 356 | – |
| C[C@@H]1[C@@H](C)CCC[C@H](CN2CCN3CCN(S(C)(=O)=O)C[C@@H]3C2)[C@@H]2CC[C@H]2CN2C[C@@]3(CCCc4cc(Cl)ccc43)COc3ccc(cc32)C(=O)NS1(=O)=O (stereo in doubt) [Example 30] | 0.516 | 370 | – |
| C[C@@H]1[C@@H](C)CCC[C@H](CN2CCN3CCOC[C@@H]3C2)[C@@H]2CC[C@H]2CN2C[C@@]3(CCCc4cc(Cl)ccc43)COc3ccc(cc32)C(=O)NS1(=O)=O (stereo in doubt) [Example 32] | 0.493 | 380 | – |
| CC(=O)N1CCN(C[C@H]2CCC[C@H](C)[C@@H](C)S(=O)(=O)NC(=O)c3ccc4c(c3)N(C[C@@H]3CC[C@@H]23)C[C@@]2(CCCc3cc(Cl)ccc32)CO4)CC1 (stereo in doubt) [Example 33] | 0.172 | 411 | – |
| COCCN1CCN(C[C@H]2CCC[C@H](C)[C@@H](C)S(=O)(=O)NC(=O)c3ccc4c(c3)N(C[C@@H]3CC[C@@H]23)C[C@@]2(CCCc3cc(Cl)ccc32)CO4)CCC1=O (stereo in doubt) [Example 36] | 0.265 | – | 443 |
| COCCN1CCCN(C[C@H]2CCC[C@H](C)[C@@H](C)S(=O)(=O)NC(=O)c3ccc4c(c3)N(C[C@@H]3CC[C@@H]23)C[C@@]2(CCCc3cc(Cl)ccc32)CO4)CC1=O (stereo in doubt) [Example 42] | 0.408 | – | 593 |
| C[C@@H]1[C@@H](C)C/C=C/[C@H](CN2CCOCC2)[C@@H]2CC[C@H]2CN2C[C@@]3(CCCc4cc(Cl)ccc43)COc3ccc(cc32)C(=O)NS1(=O)=O (stereo in doubt) [Example 62] | 0.388 | – | 1440 |
| C[C@@H]1[C@@H](C)CCC[C@H](CN2CCN3CCNC[C@@H]3C2)[C@@H]2CC[C@H]2CN2C[C@@]3(CCCc4cc(Cl)ccc43)COc3ccc(cc32)C(=O)NS1(=O)=O (stereo in doubt) [Example 81] | 0.831 | – | 3560 |
